From patent US12162863B2, “Modulators of stimulator of interferon genes (STING)” (RYVU THERAPEUTICS S.A., priority 2018, dated 2024)

Tests used:
[1] = test system: interferon regulatory factor (IRF) pathway in THP-1 dual cells; assay: THP-1 Dual Reporter Assay, IRF pathway (luciferase reporter); assay type: cell-based; conditions: Homo sapiens, THP1-Dual, 18 h of stimulation, luminescence
Procedure: (§1) THP-1 Dual Reporter Assay
(§2) Compounds of the present invention were tested for their activity using THP-1 dual cells (Invivogen, cat no. thpd-nfis) allowing for simultaneous study of NF-κB pathway and the interferon regulatory factor (IRF) pathway. THP-1 dual cells contain luciferase reporter gene under the control of an ISG54 (interferon-stimulated gene) minimal promoter in conjunction with five interferon-stimulated response elements and a secreted embryonic alkaline phosphatase reporter gene under the control an IFN (interferon)-β minimal promoter fused to five copies of the NF-κB consensus transcriptional response element with three copies of the c-Rel binding site. Following 18 h of stimulation with STING agonist, medium was collected and transferred onto fresh cell culture plate. To verify activity of the IRF pathway, luminescence activity was measured with standard laboratory plate reader immediately after addition 10 μl of the medium to 50 μl of luminescence reagent (Invivogen, cat. No. rep-qlc2). To verify activity of NF-κB pathway, 20 μl of the medium was mixed with 80 μl of a detection medium (Invivogen, cat. No. rep-qb2) and incubated for 2 hours at 37° C. in a humidified atmosphere containing 5% CO2. Next, absorbance at 630 nm was recorded using standard laboratory plate reader.

[2] = test system: NF-κB pathway in THP-1 dual cells; assay: THP-1 Dual Reporter Assay, NF-κB pathway (SEAP reporter); assay type: cell-based; conditions: Homo sapiens, THP1-Dual, 18 h of stimulation, absorbance at 630 nm, read-out: THP1 Dual EC50 (μM) NFkB
Procedure: as §1, §2

human STING = human STING (Homo sapiens, UniProt Q86WV6); assay: Fluorescence Thermal Shift assay; assay type: binding; conditions: 50 μM compound; STING 0.1 mg/ml; 20 minutes preincubation; read-out: [hSTING] FTS, ΔTm [° C.] for 50 μM
Chain of human STING (Q86WV6 whole entry H232R): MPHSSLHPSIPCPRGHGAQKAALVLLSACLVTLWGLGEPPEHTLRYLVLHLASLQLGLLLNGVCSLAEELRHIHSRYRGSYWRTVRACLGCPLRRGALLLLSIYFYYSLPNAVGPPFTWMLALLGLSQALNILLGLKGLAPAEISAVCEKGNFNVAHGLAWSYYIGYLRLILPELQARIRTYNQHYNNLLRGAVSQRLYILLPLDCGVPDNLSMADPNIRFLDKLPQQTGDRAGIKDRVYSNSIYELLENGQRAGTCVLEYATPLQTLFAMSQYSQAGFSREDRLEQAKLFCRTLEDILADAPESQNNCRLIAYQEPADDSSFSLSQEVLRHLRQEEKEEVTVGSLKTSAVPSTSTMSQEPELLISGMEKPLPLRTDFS
Procedure: Fluorescence Thermal Shift Assay Compounds of the present invention were tested for binding to human STING in Fluorescence Thermal Shift assay. STING was preincubated with the compounds for 20 minutes in 50 mM Hepes, 150 mM NaCl, pH 7.5 in 16 μl volume, following by adding 4 μl of SyproOrange dye dilution (ThermoFisher, cat no. S-6651). Final STING concentration was 0.1 mg/ml. Thermal unfolding was performed in Real-Time PCR QuantStudio 6 Flex System (Applied Biosystems), from 25 to 99° C., with continuous ramp mode and ramp rate 0.033° C./s. The data were analyzed using Protein Thermal Shift Software (ThermoFisher). […] For example, ΔTm [° C.] of FTS assay for following examples are: […]

| Compound | EC50 [1] [µM] | EC50 [2] [µM] | ΔTm at 50 µM (human STING) [°C] |
| --- | --- | --- | --- |
| O=c1c(CN(CCCn2ccnc2)Cc2ccncc2)coc2ccccc12 [Example 33, 3-({[3-(1H-imidazol-1-yl)propyl](pyridin-4-ylmethyl)amino}methyl)-4H-chromen-4-one] | 10 to 20 | ≥ 20 | < 2.5 |
| COc1cc(CN(CCCn2ccnc2)Cc2coc3cc(N4CCN(C)CC4)ccc3c2=O)ccn1 [Example 34, 3-({[3-(1H-imidazol-1-yl)propyl][(2-methoxypyridin-4-yl)methyl]amino}methyl)-7-(4-methylpiperazin-1-yl)-4H-chromen-4-one] | ≥ 20 | 10 to 20 | < 2.5 |
| Cc1oc2ccccc2c(=O)c1CN(CCCn1ccnc1)Cc1ccncc1 [Example 36, 3-({[3-(1H-imidazol-1-yl)propyl][(pyridin-4-yl)methyl]amino}methyl)-2-methyl-4H-chromen-4-one] | ≤ 10 | 10 to 20 | > 2.5 |
| O=c1c(CN(CCCn2ccnc2)Cc2ccncc2)coc2cc(Br)c(F)cc12 [Example 37, 7-bromo-6-fluoro-3-({[3-(1H-imidazol-1-yl)propyl][(pyridin-4-yl)methyl]amino}methyl)-4H-chromen-4-one] | ≤ 10 | ≤ 10 | > 2.5 |
| COc1ccc(-c2ccc3c(=O)c(CN(CCCn4ccnc4)Cc4ccncc4)coc3c2)cc1OC [Example 38, 7-(3,4-dimethoxyphenyl)-3-({[3-(1H-imidazol-1-yl)propyl][(pyridin-4-yl)methyl]amino}methyl)-4H-chromen-4-one] | ≥ 20 | ≥ 20 | < 2.5 |
| COc1ccccc1-c1ccc2c(=O)c(CN(CCCn3ccnc3)Cc3ccncc3)coc2c1 [Example 39, 3-({[3-(1H-imidazol-1-yl)propyl][(pyridin-4-yl)methyl]amino}methyl)-7-(2-methoxyphenyl)-4H-chromen-4-one] | ≤ 10 | 10 to 20 | > 2.5 |
| COc1cccc(-c2ccc3c(=O)c(CN(CCCn4ccnc4)Cc4ccncc4)coc3c2)c1 [Example 40, 3-({[3-(1H-imidazol-1-yl)propyl][(pyridin-4-yl)methyl]amino}methyl)-7-(3-methoxyphenyl)-4H-chromen-4-one] | ≤ 10 | ≤ 10 | > 2.5 |
| Cc1oc2ccccc2c(=O)c1CN(CCCc1cccnc1)Cc1ccncc1 [Example 41, 2-methyl-3-({[3-(pyridin-3-yl)propyl][(pyridin-4-yl)methyl]amino}methyl)-4H-chromen-4-one] | 10 to 20 | 10 to 20 | > 2.5 |
| COc1ccc(-c2cc3occ(CN(CCCn4ccnc4)Cc4ccncc4)c(=O)c3cc2F)cc1 [Example 42, 6-fluoro-3-({[3-(1H-imidazol-1-yl)propyl][(pyridin-4-yl)methyl]amino}methyl)-7-(4-methoxyphenyl)-4H-chromen-4-one] | ≤ 10 | ≤ 10 | > 2.5 |
| CCn1cc(CN(CCCn2ccnc2)Cc2ccncc2)c(=O)c2ccccc21 [Example 43, 1-ethyl-3-({[3-(1H-imidazol-1-yl)propyl](pyridin-4-ylmethyl)amino}methyl)-1,4-dihydroquinolin-4-one] | ≥ 20 | ≥ 20 | < 2.5 |
| COc1cc(CN(CCCn2ccnc2)Cc2cn(C)c3ccccc3c2=O)ccn1 [Example 44, 3-({[3-(1H-imidazol-1-yl)propyl][(2-methoxypyridin-4-yl)methyl]amino}methyl)-1-methyl-1,4-dihydroquinolin-4-one] | 10 to 20 | ≥ 20 | < 2.5 |
| O=c1c(CN(CCCn2ccnc2)Cc2ccncc2)coc2c(F)cc(F)cc12 [Example 45, 6,8-difluoro-3-({[3-(1H-imidazol-1-yl)propyl][(pyridin-4-yl)methyl]amino}methyl)-4H chromen-4-one] | 10 to 20 | ≥ 20 | < 2.5 |
| COc1cc(CN(CCCn2ccnc2)Cc2c(C)oc3ccccc3c2=O)ccn1 [Example 46, 3-({[3-(1H-imidazol-1-yl)propyl][(2-methoxypyridin-4-yl)methyl]amino}methyl)-2-methyl-4H-chromen-4-one] | ≤ 10 | ≥ 20 | < 2.5 |
| O=c1c(CN(CCCn2ccnc2)Cc2ccncc2)coc2c1cc(F)c1ccccc12 [Example 47, 6-fluoro-3-({[3-(1H-imidazol-1-yl)propyl][(pyridin-4-yl)methyl]amino}methyl)-4H benzo[h]chromen-4-one] | ≤ 10 | ≤ 10 | > 2.5 |
| Cc1oc2cc(Br)ccc2c(=O)c1CN(CCCn1ccnc1)Cc1ccncc1 [Example 48, 7-bromo-3-({[3-(1H-imidazol-1-yl)propyl][(pyridin-4-yl)methyl]amino}methyl)-2-methyl-4H-chromen-4-one] | ≤ 10 | ≤ 10 | > 2.5 |
| CN1CCN(c2cc3occ(CN(CCCn4ccnc4)Cc4ccncc4)c(=O)c3cc2F)CC1 [Example 49, 6-fluoro-3-({[3-(1H-imidazol-1-yl)propyl][(pyridin-4-yl)methyl]amino}methyl)-7-(4-methylpiperazin-1-yl)-4H-chromen-4-one] | ≤ 10 | ≤ 10 | > 2.5 |
| O=c1c(CN(CCCn2cnc3ccccc32)Cc2ccncc2)coc2c1ccc1ccccc12 [Example 50, 3-({[3-(1H-1,3-benzodiazol-1-yl)propyl][(pyridin-4-yl)methyl]amino}methyl)-4H-benzo[h]chromen-4-one] | ≤ 10 | ≤ 10 | > 2.5 |
| COc1cc(CN(CCCn2ccnc2)Cc2coc3c(C)c(C)ccc3c2=O)ccn1 [Example 51, 3-({[3-(1H-imidazol-1-yl)propyl][(2-methoxypyridin-4-yl)methyl]amino}methyl)-7,8-dimethyl-4H-chromen-4-one] | ≤ 10 | ≤ 10 | > 2.5 |
| COc1ccc2ccc3c(=O)c(CN(CCCc4cccnc4)Cc4ccncc4)coc3c2c1 [Example 52, 9-methoxy-3-({[3-(pyridin-3-yl)propyl][(pyridin-4-yl)methyl]amino}methyl)-4H-benzo[h]chromen-4-one] | ≤ 10 | ≤ 10 | > 2.5 |
| COc1cc(CN(CCCn2cnc3ccccc32)Cc2coc3c(ccc4ccccc43)c2=O)ccn1 [Example 53, 3-({[3-(1H-1,3-benzodiazol-1-yl)propyl][(2-methoxypyridin-4-yl)methyl]amino}methyl)-4H-benzo[h]chromen-4-one] | ≤ 10 | ≤ 10 | > 2.5 |
| O=c1c(CN(CCCc2cccnc2)Cc2ccncc2)coc2c1cc(F)c1ccccc12 [Example 54, 6-fluoro-3-({[3-(pyridin-3-yl)propyl][(pyridin-4-yl)methyl]amino}methyl)-4H benzo[h]chromen-4-one] | ≤ 10 | ≤ 10 | > 2.5 |
| Cc1ccc2c(=O)c(CN(CCCc3cccnc3)Cc3ccncc3)c(C)oc2c1C [Example 55, 2,7,8-trimethyl-3-({[3-(pyridin-3-yl)propyl][(pyridin-4-yl)methyl]amino}methyl)-4H-chromen-4-one] | ≤ 10 | ≤ 10 | > 2.5 |
| COc1ccc(-c2ccc3c(=O)c(CN(CCCn4ccnc4)Cc4ccncc4)c(C)oc3c2)cc1 [Example 56, 3-({[3-(1H-imidazol-1-yl)propyl][(pyridin-4-yl)methyl]amino}methyl)-7-(4-methoxyphenyl)-2-methyl-4H-chromen-4-one] | ≤ 10 | ≤ 10 | > 2.5 |
| COc1cccc(-c2cc3occ(CN(CCCn4ccnc4)Cc4ccncc4)c(=O)c3cc2F)c1 [Example 57, 6-fluoro-3-({[3-(1H-imidazol-1-yl)propyl][(pyridin-4-yl)methyl]amino}methyl)-7-(3-methoxyphenyl)-4H-chromen-4-one] | ≥ 20 | ≥ 20 | > 2.5 |
| CN1CCN(c2cc3occ(CN(CCCc4cccnc4)Cc4ccncc4)c(=O)c3cc2F)CC1 [Example 58, 6-fluoro-7-(4-methylpiperazin-1-yl)-3-({[3-(pyridin-3-yl)propyl](pyridin-4-ylmethyl)amino}methyl)-4H-chromen-4-one] | ≤ 10 | ≤ 10 | > 2.5 |
